Reference: the supplement of paper PMC7224384

Columns and labels:
MDA-MB-453 [1] = test: drug sensitivity score (DSS), in combination with BLU9931 (DSS (weighted AUC score)); higher = more sensitive (stronger viability decrease); extreme values may be limits of the assay; conditions: BLU9931 100 nM; 72 h
Summary of the method: (§1)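 Cells of the MDA-MB-453 line (2000 per well) were added in medium, with or without 100 nM final FGFR4 inhibitor, to 384-well plates predispensed with FIMM Oncology set compounds at five 10-fold dilutions covering a 10,000-fold range. After 72 h at 37 °C, 5% CO2, CellTiterGlo 2.0 read cellular ATP. Percent viability came from per-plate normalisation to control wells, and the drug sensitivity score was defined as a weighted area under a four-parameter logistic fit.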

MDA-MB-453 [2] = test: drug sensitivity score (DSS), single agent (DSS (weighted AUC score)); higher = more sensitive (stronger viability decrease); extreme values may be limits of the assay; conditions: BLU9931 0 nM; 72 h
Summary of the method: as §1

Compound | drug sensitivity score (MDA-MB-453 [1]) | drug sensitivity score (MDA-MB-453 [2])
COc1cc2nccc(Oc3ccc(NC(=O)C4(C(=O)Nc5ccc(F)cc5)CC4)cc3)c2cc1OC [Cabozantinib] | 1.6 | 1.3
CNC(=O)c1ccc(-c2cnc3ncc(Cc4ccc5ncccc5c4)n3n2)cc1F [Capmatinib] | 0 | 0
CCN(CC)CCNC(=O)c1c(C)[nH]c(/C=C2\C(=O)Nc3ccc(-c4csc(-c5ccccc5)n4)cc32)c1C [Amcasertib] | 1 | 2.5
CN(C)C(=O)c1ccc(S(=O)(=O)c2ccc(NC(=O)[C@@](C)(O)C(F)(F)F)c(Cl)c2)cc1 [AZD7545] | 0.2 | 0.1
COc1cc2nccc(Oc3ccc(NC(=O)Nc4cc(C)on4)c(Cl)c3)c2cc1OC [Tivozanib] | 1.4 | 2.8
Cc1nc(NC(=O)N2CCC[C@H]2C(N)=O)sc1-c1ccnc(C(C)(C)C(F)(F)F)c1 [Alpelisib] | 8 | 7.2
CC(C)(C)C[C@@H]1N[C@@H](C(=O)N[C@H]2CC[C@H](O)CC2)[C@H](c2cccc(Cl)c2F)[C@]12C(=O)Nc1cc(Cl)ccc12 | 0 | 0.9
CC(C)(C)NC(=O)[C@H]1CC[C@H]2[C@@H]3CC[C@H]4NC(=O)C=C[C@]4(C)[C@H]3CC[C@]12C [Finasteride] | 0 | 0.3
Cc1ccc(F)c(NC(=O)Nc2ccc(-c3cccc4[nH]nc(N)c34)cc2)c1 [Linifanib] | 0 | 0
COc1cc(C)[nH]c(=O)c1CNC(=O)c1c(C)n([C@H](C)C2CCOCC2)c2ccccc12 [CPI-360] | 0 | 0
C[C@]1(O)C[C@@H](c2nc(-c3ccc4ccc(-c5ccccc5)nc4c3)c3c(N)nccn32)C1 [Linsitinib] | 1 | 3.6
CC[C@H](C)C(=O)O[C@H]1C[C@@H](C)C=C2C=C[C@H](C)[C@H](CC[C@@H]3C[C@@H](O)CC(=O)O3)[C@H]21 [Lovastatin] | 0 | 0
O=C(Nc1ccc2[nH]nc(-c3ccncc3)c2c1)[C@@H]1CCN(CC(=O)N2CCN(c3ccc(-c4ncccn4)cc3)CC2)C1 | 0 | 3.4
C#Cc1cccc(Nc2ncnc3cc4c(cc23)OCCOCCOCCO4)c1 [Icotinib] | 1.9 | 1.8
O=C(NCc1ccncc1)C12CC3CC(C1)CC(c1ccc(Cl)cc1)(C3)C2 | 0 | 1.1
O=C(CCNC(=O)c1ccc(OC(F)(F)F)cc1)N[C@@H]1CCCc2ccccc21 [ML390] | 3 | 5.2
CS(=O)(=O)c1ccc(-c2cnc(N)c(C(=O)Nc3ccccc3)n2)cc1 [VE-821] | 4.7 | 2
CC[C@@H]1[C@H](F)C(=O)N[C@@H]1COc1nccc2cc(C(N)=O)c(OC)cc12 | 0.4 | 2.9
Nc1cccc2c1C(=O)N(C1CCC(=O)NC1=O)C2=O (stereo unspecified) [Pomalidomide] | 0 | 0
Cn1cnc2c(F)c(Nc3ccc(Br)cc3Cl)c(C(=O)NOCCO)cc21 [Selumetinib] | 0.7 | 0.7
NC(=S)N/N=C/c1ncccc1N [Triapine] | 1.3 | 0.1
CONC(=O)c1ccccc1Nc1cc(Nc2cc(C)nn2C(C)C)ncc1Cl | 0.5 | 0.8
CN1CCC(CNc2ccc3ncc(-c4cccc(OC(F)(F)F)c4)n3n2)CC1 [SGI-1776] | 5.8 | 6.6
NC(=O)N1CCC(CC(=O)N2CCC([C@H]3c4ncc(Br)cc4CCc4cc(Cl)cc(Br)c43)CC2)CC1 [Lonafarnib] | 0 | 0
O=C(Nc1cccnc1)N1CCC(Cc2cccc(Oc3ccc(C(F)(F)F)cn3)c2)CC1 [PF-3845] | 2.2 | 1.8
Cc1c(-c2c(-c3ccc(F)o3)sc3ncnc(O[C@H](Cc4ccccc4OCc4ccnn4CC(F)(F)F)C(=O)O)c23)ccc(OCCN2CCN(C)CC2)c1Cl | 3.3 | 4.2
COc1cccc(-c2ccc(NC(=O)C3=C(C(=O)O)CCC3)c(F)c2)c1 [Vidofludimus] | 0 | 0.4
COc1cc(OC2CCN(C)CC2)ccc1Nc1ncc2c(n1)n(C1CCCC1)c(=O)n2C [AZ 3146] | 1 | 2.6
